Measurements reported in ChEMBL document CHEMBL3272031, “Inhibition of dihydrofolate reductase. Structure-activity correlations of quinazolines” (J Med Chem, 1976).

Molecular target: Dihydrofolate reductase (Rattus norvegicus) (UniProt Q920D2)

Nc1nc(N)c2c(Cl)c(NC(=O)Cc3ccc(Cl)c(Cl)c3)ccc2n1
log(1/C): 7.62

Nc1nc(N)c2cc(S(=O)(=O)c3ccc(Cl)c(Cl)c3)ccc2n1
log(1/C): 8.05

O=c1[nH]c(=O)c2cc(Sc3ccc4ccccc4c3)ccc2[nH]1
log(1/C): 5.07

Cc1c(NC(=O)COc2ccc3ccccc3c2)ccc2nc(N)nc(N)c12
log(1/C): 7.82

O=c1[nH]cnc2ccccc12
log(1/C): 3.62

Nc1nc(O)c2c(Sc3ccc4ccccc4c3)cccc2n1
log(1/C): 6.15

Nc1nc(O)c2cc(Sc3ccc4ccccc4c3)ccc2n1
log(1/C): 7.35

Cc1c(NC(=O)Cc2ccc(Br)cc2)ccc2nc(N)nc(N)c12
log(1/C): 7.49

Cc1cccc2nc(N)nc(N)c12
log(1/C): 6.09

Cc1ccc2nc(N)nc(N)c2c1
log(1/C): 5.66

CC1CCc2nc(N)nc(O)c2C1 (stereo unspecified)
log(1/C): 4.26

Oc1nc(S)nc2ccc(Sc3ccc4ccccc4c3)cc12
log(1/C): 5

Nc1nc(N)c2cc([S+]([O-])c3ccc4ccccc4c3)ccc2n1 (stereo unspecified)
log(1/C): 8.15

Nc1nc(N)c2c(Cl)cccc2n1
log(1/C): 6.25

Nc1nc(N)c2c([S+]([O-])c3ccc(Cl)c(Cl)c3)cccc2n1 (stereo unspecified)
log(1/C): 4.26

Nc1nc(N)c2c(Cl)c(NC(=O)COc3ccc(Cl)c(Cl)c3)ccc2n1
log(1/C): 7.64

Nc1nc(N)c2c(Cl)c(NC(=O)CCc3ccc(Cl)cc3)ccc2n1
log(1/C): 7.44

Nc1nc(N)c2cc(C=O)ccc2n1
log(1/C): 5

Cc1c(NC(=O)CCc2ccc(Cl)cc2)ccc2nc(N)nc(N)c12
log(1/C): 7.48

Nc1ncnc2ccc(S(=O)(=O)c3ccc4ccccc4c3)cc12
log(1/C): 5.47

Nc1nc(N)c2c(Cl)c(NC(=O)Cc3cccc(Br)c3)ccc2n1
log(1/C): 8.12

Sc1nc(S)c2cc(Sc3ccc4ccccc4c3)ccc2n1
log(1/C): 5.05

Nc1nc(N)c2c(S(=O)(=O)c3ccc4ccccc4c3)cccc2n1
log(1/C): 4.82

Nc1nc(N)c2c(Cl)c(NC(=O)Cc3ccc4ccccc4c3)ccc2n1
log(1/C): 8.3

Nc1ncnc2ccc([S+]([O-])c3ccc4ccccc4c3)cc12 (stereo unspecified)
log(1/C): 4.82

Nc1nc(O)nc2ccccc12
log(1/C): 4.02

Cc1c(NC(=O)Cc2ccc(Cl)c(Cl)c2)ccc2nc(N)nc(N)c12
log(1/C): 7.77

Nc1nc(N)c2c(Sc3ccc(Cl)c(Cl)c3)cccc2n1
log(1/C): 6.8

Nc1nc(N)c2cc(NC(=O)Cc3ccc(Cl)cc3)ccc2n1
log(1/C): 7.64

Nc1nc(N)c2cc(Sc3cccc(C(F)(F)F)c3)ccc2n1
log(1/C): 7.44

Nc1nc(O)nc2ccc(Sc3ccc4ccccc4c3)cc12
log(1/C): 5.77

CC(=O)Nc1nc(O)c2cc(S(=O)(=O)c3ccc4ccccc4c3)ccc2n1
log(1/C): 6.11

Nc1nc(N)c2c(n1)CCCC2
log(1/C): 5.13

Nc1nc(N)c2c(Sc3ccc4ccccc4c3)cccc2n1
log(1/C): 6.92

Cc1c(NC(=O)C(Sc2ccc3ccccc3c2)C(C)C)ccc2nc(N)nc(N)c12 (stereo unspecified)
log(1/C): 7.68

NCc1ccc2nc(N)nc(N)c2c1
log(1/C): 5.03

Nc1nc(N)c2cc(NC(=O)Cc3cccc(C(F)(F)F)c3)ccc2n1
log(1/C): 7.02

Nc1nc(S)c2cc(Sc3ccc4ccccc4c3)ccc2n1
log(1/C): 6.64

CC(C(=O)Nc1ccc2nc(N)nc(N)c2c1Cl)c1ccccc1 (stereo unspecified)
log(1/C): 7.77

Nc1nc(N)c2c(Cl)c(NC(=O)Cc3cccc(C(F)(F)F)c3)ccc2n1
log(1/C): 7.64

Nc1nc(O)c2cc(Sc3ccc(Cl)c(Cl)c3)ccc2n1
log(1/C): 6.92

Nc1nc(N)c2c(Cl)c(N)ccc2n1
log(1/C): 6.18

Nc1nc(O)c2cc(S(=O)(=O)c3ccc(Cl)c(Cl)c3)ccc2n1
log(1/C): 7.12

Nc1nc(N)c2cc(NC(=O)Cc3ccc(Cl)c(Cl)c3)ccc2n1
log(1/C): 7.51

Nc1nc(N)c2c(CCc3ccc4ccccc4c3)cccc2n1
log(1/C): 7.7

Cc1c(NC(=O)Cc2cccc(Br)c2)ccc2nc(N)nc(N)c12
log(1/C): 7.47

c1ccc2ncncc2c1
log(1/C): 2.26

Nc1nc(O)c2cc(S(=O)(=O)c3ccc4ccccc4c3)ccc2n1
log(1/C): 7.96

Nc1nc(N)c2cc(Cl)ccc2n1
log(1/C): 5.4

Nc1nc(N)c2c(Cl)c(NC(=O)Cc3ccc(Cl)cc3)ccc2n1
log(1/C): 7.92

Nc1nc(O)c2c(Cl)cccc2n1
log(1/C): 4.66

Nc1nc(N)c2c(CSc3ccc(Cl)cc3)cccc2n1
log(1/C): 7.7

Cc1ccc2nc(N)nc(O)c2c1
log(1/C): 4.44

Nc1nc(N)c2cc(NCc3ccc(Cl)c(Cl)c3)ccc2n1
log(1/C): 7.74

Nc1nc2ccccc2c(=O)[nH]1
log(1/C): 4.31

Nc1nc(O)c2c(S(=O)(=O)c3ccc4ccccc4c3)cccc2n1
log(1/C): 4.85

Cc1c(NC(=O)CSc2ccc3ccccc3c2)ccc2nc(N)nc(N)c12
log(1/C): 8.27

Nc1nc(N)c2cc(S(=O)(=O)c3ccc4ccccc4c3)ccc2n1
log(1/C): 8.4

Nc1nc(S)c2cc(S(=O)(=O)c3ccc4ccccc4c3)ccc2n1
log(1/C): 7.6

Cc1c(NC(=O)Cc2cccc(C(F)(F)F)c2)ccc2nc(N)nc(N)c12
log(1/C): 7.23

Nc1nc(O)c2cc([S+]([O-])c3ccc4ccccc4c3)ccc2n1 (stereo unspecified)
log(1/C): 7.38

Nc1nc(N)c2cc(CNC(=O)c3ccc(Cl)c(Cl)c3)ccc2n1
log(1/C): 7

Nc1nc(N)c2cc(CNC(=O)c3ccc4ccccc4c3)ccc2n1
log(1/C): 7

Nc1nc(N)c2c(/C=C/c3ccc4ccccc4c3)cccc2n1
log(1/C): 5.28

Nc1nc(S)c2ccccc2n1
log(1/C): 4.37

Nc1nc(N)c2cc(NC(=O)Cc3ccc4ccccc4c3)ccc2n1
log(1/C): 8.3

Nc1nc(N)c2cc(Sc3ccc(Cl)c(Cl)c3)ccc2n1
log(1/C): 7.96

Cc1cccc2nc(N)nc(O)c12
log(1/C): 4.8

Nc1ncnc2ccc(Sc3ccc4ccccc4c3)cc12
log(1/C): 4.68

Nc1ccc2nc(N)nc(N)c2c1
log(1/C): 4.57

Nc1nc(N)c2cc(CNC(=O)c3cccc(C(F)(F)F)c3)ccc2n1
log(1/C): 6.59

Nc1nc(N)c2c([S+]([O-])c3ccc4ccccc4c3)cccc2n1 (stereo unspecified)
log(1/C): 4.35

Nc1nc(N)c2c(/C=C\c3ccc4ccccc4c3)cccc2n1
log(1/C): 6.52

O=c1[nH]c(=S)c2cc(Sc3ccc4ccccc4c3)ccc2[nH]1
log(1/C): 5.24

Nc1nc(N)c2cc(Sc3ccc4ccccc4c3)ccc2n1
log(1/C): 8.15

Nc1nc(S)nc2ccc(Sc3ccc4ccccc4c3)cc12
log(1/C): 5.52

Nc1nc(O)c2c(n1)CCCC2
log(1/C): 3.96

Nc1nc(N)c2c(S(=O)(=O)c3ccc(Cl)c(Cl)c3)cccc2n1
log(1/C): 4.24

Nc1nc(S)nc2ccccc12
log(1/C): 3.72

Nc1nc(O)c2ccc(C(F)(F)F)cc2n1
log(1/C): 4.35

Nc1nc(N)c2c(Cl)c(Br)ccc2n1
log(1/C): 7

Cc1c(NC(=O)Cc2ccc3ccccc3c2)ccc2nc(N)nc(N)c12
log(1/C): 8.38

CC(=O)Nc1nc(O)c2ccccc2n1
log(1/C): 4.28

Nc1ncnc2ccccc12
log(1/C): 3.09

Nc1nc(N)c2cc(NC(=O)CCc3ccc(Cl)cc3)ccc2n1
log(1/C): 7.33

Nc1nc(N)c2c(Cl)c(NC(=O)COc3ccc4ccccc4c3)ccc2n1
log(1/C): 7.85
